Assay results published in patent US12162856B2, “β-catenin and B-cell lymphoma 9 (BCL9) inhibitors” (H. LEE MOFFITT CANCER CENTER AND RESEARCH INSTITUTE, INC., priority 2019, dated 2024).
Counter-ions that a name gives are not always drawn. Like-named read-outs stand apart in the source and are kept apart here.

Biological target: T1, β-catenin/BCL9 PPI (Homo sapiens, UniProt P35222)
T1 construct: Wild-type full-length β-catenin were cloned into a pET-28b vector; made in house; host or cells: Escherichia coli BL21 DE3 (β-catenin); BCL9 peptide chemically synthesized
T1 sequence (P35222 1-781): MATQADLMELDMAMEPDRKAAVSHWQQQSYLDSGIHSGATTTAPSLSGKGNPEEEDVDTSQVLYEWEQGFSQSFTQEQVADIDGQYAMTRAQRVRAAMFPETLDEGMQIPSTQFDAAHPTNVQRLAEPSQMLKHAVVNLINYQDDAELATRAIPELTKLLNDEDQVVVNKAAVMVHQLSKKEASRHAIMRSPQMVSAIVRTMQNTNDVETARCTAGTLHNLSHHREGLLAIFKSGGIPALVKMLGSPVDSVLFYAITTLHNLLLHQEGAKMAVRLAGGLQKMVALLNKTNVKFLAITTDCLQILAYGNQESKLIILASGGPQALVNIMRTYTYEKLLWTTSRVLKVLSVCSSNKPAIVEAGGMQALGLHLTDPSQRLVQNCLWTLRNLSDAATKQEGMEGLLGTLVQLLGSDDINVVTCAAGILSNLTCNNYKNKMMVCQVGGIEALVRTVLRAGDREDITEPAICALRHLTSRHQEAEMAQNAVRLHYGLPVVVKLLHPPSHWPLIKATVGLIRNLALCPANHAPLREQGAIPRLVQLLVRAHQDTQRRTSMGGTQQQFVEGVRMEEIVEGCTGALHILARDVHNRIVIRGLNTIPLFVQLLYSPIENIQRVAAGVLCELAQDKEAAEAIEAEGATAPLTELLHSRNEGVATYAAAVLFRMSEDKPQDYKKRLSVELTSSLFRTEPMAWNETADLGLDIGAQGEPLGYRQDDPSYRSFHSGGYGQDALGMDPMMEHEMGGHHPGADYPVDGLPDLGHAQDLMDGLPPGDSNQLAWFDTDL
Assay: AlphaScreen competitive inhibition assay of the β-catenin/BCL9 PPI
Type: binding
Conditions: mean ± SD, triplicate, Ki derived from IC50 (Nikolovska-Coleska equation)
Method: Protein expression and purification. Wild-type full-length β-catenin were cloned into a pET-28b vector carrying a C-terminal 6×histidine (Novagen), and transformed into Escherichia coli BL21 DE3 (Novagen). Cells were cultured in LB medium with 30 μg/mL kanamycin until the OD600 was approximately 0.8, and then protein expression was induced with 400 μM of IPTG at 20° C. overnight. Cells were lysed by sonication. The proteins were purified by Ni-NTA affinity chromatography (30210, Qiagen) and dialyzed against a buffer containing 20 mM of Tris (pH 8.5), 100 mM NaCl, 10% glycerol, and 3 mM DTT. The purity of β-eaten in was greater than 95% as determined by SDS-PAGE gel analysis. Native non-denaturing gel electrophoresis was performed to confirm the homogeneity of the purified proteins. Thermal-shift assay was performed on an iCycler iQ Real Time Detection System (Bio-Rad) to monitor protein stability and detect protein aggregation. Protein unfolding was evaluated through measuring the S15 fluorescence changes of fluorescent dye Sypro Orange when interacting with wild-type or mutant β-catenin proteins. A temperature increment of […] was applied. CD spectra were measured on a J-815 spectropolarimeter (Jasco). All spectra were recorded at room temperature, and the baseline control containing all of the substances except protein. Sample were prepared at a concentration around 1-5 μM in a buffer of 10 mM potassium phosphate and 100 mM potassium fluoride at pH 7.0 to ensure that the transmission of light through the sample was not restricted. All proteins were stable and no aggregation was observed under storage or assay conditions. Proteins were aliquoted and stored at −80° C.
BCL9 peptide synthesis and purification. Human BCL9 (residues 350-375), and […] biotinylated human BCL9 (residues 350-375) were synthesized. All synthesized peptides were purified by HPLC with purity >95%. The structures were validated by LC/MS. The sequences are as follows (Ahx, 6-aminohexanoic acid).
AlphaScreen competitive inhibition assays. For the competitive inhibition assays of the β-catenin/BCL9 PPI, the negative control (equivalent to 0% inhibition) refers to 5.0 nM of biotinylated BCL9, 40 nM of His6-tagged β-catenin, and 10 μg/mL of donor and acceptor beads in a final volume of 25 μL assay buffer, but no tested inhibitor present. The positive control (equivalent to 100% inhibition) refers to 5.0 nM of biotinylated BCL9 and […] of donor and acceptor beads in a final volume of 25 μL assay buffer.
For the β-catenin/BCL9 assay, 5 nM of biotinylated BCL9 and 40 nM of His6-tagged β-catenin were incubated in assay buffer at 4° C. for 30 min. Different concentrations of the tested inhibitor were added and incubated in 20 μL assay buffer at 4° C. for another 1 h. All of the above assay plates were covered and gently mixed on an orbital shaker. The donor and acceptor beads were then added to the plates to a final concentration of 10 μg/mL in 25 μL assay buffer. The mixture was incubated for 1 h at 4° C. before detection. The IC50 value was determined by nonlinear least-square analysis of GraphPad Prism 5.0. The Ki values were derived from the IC50 values using a method reported by Nikolovska-Coleska et al (Nikolovska-Coleska, Z.; Wang, R.; Fang, X.; Pan, H.; Tomita, Y.; Li, P.; Roller, P. P.; Krajewski, K.; Saito, N. G.; Stuckey, J. A.; Wang, S. Development and optimization of a binding assay for the XIAP BIR3 domain using fluorescence polarization. Anal. Biochem. 2004, 332, 261-273.). The assays were conducted under the conditions required by Nikolovska-Coleska et al.'s equation for determining the Ki values. All of the experiments were performed in triplicate. The results were expressed as mean±standard deviation.

[1] = experiment 1, read-out: Ki (μM ± SD) experiment 1
[2] = experiment 2, read-out: Ki (μM ± SD) experiment 2
[3] = experiment 3, read-out: Ki (μM ± SD) experiment 3
[4] = experiment 4, read-out: Ki (μM ± SD) experiment 4

| SMILES | Ki [1] | Ki [2] | Ki [3] | Ki [4] |
| --- | --- | --- | --- | --- |
| CN(C(=O)C1CCNCC1)c1cc(F)cc(C(=O)N2CCN(C(=O)c3ccc(O[C@H]4CCNC4)c(C4CCCCC4)c3)CC2)c1 [Compound 10, (S)—N-(3-(4-(3-cyclohexyl-4-(pyrrolidin-3-yloxy)benzoyl)piperazine-1-carbonyl)-5-fluorophenyl)-N-methylpiperidine-4-carboxamide ditrifluoroacetate] | 420 ± 50 µM | 76 ± 8.3 µM |  |  |
| CC(C)(CN)C(=O)Nc1cc(F)cc(C(=O)N2CCN(C(=O)c3ccc(O[C@H]4CCNC4)c(C4CCC(C(F)(F)F)CC4)c3)CC2)c1 (stereo partly drawn) [Compound 11, (S)-3-amino-N-(3-fluoro-5-(4-(4-(pyrrolidin-3-yloxy)-3-(4-(trifluoromethyl)cyclohexyl)benzoyl)piperazine-1-carbonyl)phenyl)-2,2-dimethylpropanamide ditrifluoroacetate] | 170 ± 23 µM | 150 ± 18 µM |  |  |
| CC(C)(CN)C(=O)Nc1cc(F)cc(C(=O)N2CCN(C(=O)c3ccc(O[C@H]4CCNC4)c(C4CCCCC4)c3)CC2)c1 [Compound 4, (S)-3-Amino-N-(3-(4-(3-cyclohexyl-4-(pyrrolidin-3-yloxy)benzoyl)piperazine-1-carbonyl)-5-fluorophenyl)-2,2-dimethylpropanamide ditrifluoroacetate] | 780 ± 59 µM | 310 ± 43 µM |  |  |
| CC(=O)Nc1cc(F)cc(C(=O)N2CCN(C(=O)c3ccc(O[C@H]4CCNC4)c(C4CCCCC4)c3)[C@@H](C(C)C)C2)c1 [Compound 15, N-(3-((S)-4-(3-Cyclohexyl-4-(((S)-pyrrolidin-3-yl)oxy)benzoyl)-3-isopropylpiperazine-1-carbonyl)-5-fluorophenyl) acetamide trifluoroacetate] |  |  | 280 ± 27 µM | 290 ± 61 µM |
| O=C(Nc1cc(F)cc(C(=O)N2CCN(C(=O)c3ccc(O[C@H]4CCNC4)c(C4CCCCC4)c3)CC2)c1)C1CCNCC1 [Compound 5, (S)—N-(3-(4-(3-cyclohexyl-4-(pyrrolidin-3-yloxy)benzoyl)piperazine-1-carbonyl)-5-fluorophenyl) piperidine-4-carboxamide ditrifluoroacetate] | 157 ± 17 µM | 160 ± 22 µM |  |  |
| CC(C)(N)C(=O)Nc1cc(F)cc(C(=O)N2CCN(C(=O)c3ccc(O[C@H]4CCNC4)c(C4CCCCC4)c3)CC2)c1 [Compound 3, (S)-2-Amino-N-(3-(4-(3-cyclohexyl-4-(pyrrolidin-3-yloxy)benzoyl)piperazine-1-carbonyl)-5-fluorophenyl)-2-methylpropanamide ditrifluoroacetate] | 310 ± 32 µM | 550 ± 46 µM |  |  |
| CC(=O)Nc1cc(F)cc(C(=O)N2CCN(C(=O)c3ccc(O[C@H]4CCNC4)c(C4CCCCC4)c3)[C@@H](CC(C)C)C2)c1 [Compound 16, N-(3-((S)-4-(3-Cyclohexyl-4-(((S)-pyrrolidin-3-yl)oxy)benzoyl)-3-isobutylpiperazine-1-carbonyl)-5-fluorophenyl)acetamide trifluoroacetate] |  |  | 330 ± 43 µM | 200 ± 20 µM |
| CC(=O)Nc1cc(F)cc(C(=O)N2CCN(C(=O)c3ccc(O[C@H]4CCNC4)c(C4CCCCC4)c3)[C@@H](C)C2)c1 [Compound 13, N-(3-((S)-4-(3-Cyclohexyl-4-(((S)-pyrrolidin-3-yl)oxy)benzoyl)-3-methylpiperazine-1-carbonyl)-5-fluorophenyl) acetamide trifluoroacetate] |  |  | 330 ± 34 µM | 100 ± 18 µM |

The next lines start with the values.

| Ki [1] | Ki [2] | Ki [3] | Ki [4] | SMILES |
| --- | --- | --- | --- | --- |
| 32 ± 4 µM | 71 ± 8.7 µM |  |  | CN(C(=O)C(C)(C)N)c1cc(F)cc(C(=O)N2CCN(C(=O)c3ccc(O[C@H]4CCNC4)c(C4CCCCC4)c3)CC2)c1 [Compound 8, (S)-2-amino-N-(3-(4-(3-cyclohexyl-4-(pyrrolidin-3-yloxy)benzoyl)piperazine-1-carbonyl)-5-fluorophenyl)-N,2-dimethylpropanamide ditrifluoroacetate] |
| 730 ± 73 µM | 240 ± 33 µM |  |  | CN(C(=O)CCCCN)c1cc(F)cc(C(=O)N2CCN(C(=O)c3ccc(O[C@H]4CCNC4)c(C4CCCCC4)c3)CC2)c1 [Compound 7, (S)-5-amino-N-(3-(4-(3-cyclohexyl-4-(pyrrolidin-3-yloxy)benzoyl)piperazine-1-carbonyl)-5-fluorophenyl)-N-methylpentanamide ditrifluoroacetate] |
| 310 ± 48 µM | 310 ± 23 µM |  |  | NCCCC(=O)Nc1cc(F)cc(C(=O)N2CCN(C(=O)c3ccc(O[C@H]4CCNC4)c(C4CCCCC4)c3)CC2)c1 [Compound 1, (S)-4-Amino-N-(3-(4-(3-cyclohexyl-4-(pyrrolidin-3-yloxy)benzoyl)piperazine-1-carbonyl)-5-fluorophenyl) butanamide ditrifluoroacetate] |
|  |  | 61 ± 7.5 µM | 37 ± 3.6 µM | CC(=O)Nc1cc(F)cc(C(=O)N2CCN(C(=O)c3ccc(O[C@H]4CCNC4)c(C4CCCCC4)c3)CC2)c1 [Compound 12, (S)—N-(3-(4-(3-Cyclohexyl-4-(pyrrolidin-3-yloxy)benzoyl)piperazine-1-carbonyl)-5-fluorophenyl) acetamide trifluoroacetate] |
| 230 ± 33 µM | 220 ± 26 µM |  |  | NCCCCC(=O)Nc1cc(F)cc(C(=O)N2CCN(C(=O)c3ccc(O[C@H]4CCNC4)c(C4CCCCC4)c3)CC2)c1 [Compound 2, (S)-5-Amino-N-(3-(4-(3-cyclohexyl-4-(pyrrolidin-3-yloxy)benzoyl)piperazine-1-carbonyl)-5-fluorophenyl) pentanamide ditrifluoroacetate] |
| > 90 µM | > 90 µM |  |  | CN(C(=O)C(C)(C)CN)c1cc(F)cc(C(=O)N2CCN(C(=O)c3ccc(O[C@H]4CCNC4)c(C4CCCCC4)c3)CC2)c1 [Compound 9, (S)-3-amino-N-(3-(4-(3-cyclohexyl-4-(pyrrolidin-3-yloxy)benzoyl)piperazine-1-carbonyl)-5-fluorophenyl)-N,2,2-trimethylpropanamide ditrifluoroacetate] |
| 840 ± 64 µM | 380 ± 44 µM |  |  | CN(C(=O)CCCN)c1cc(F)cc(C(=O)N2CCN(C(=O)c3ccc(O[C@H]4CCNC4)c(C4CCCCC4)c3)CC2)c1 [Compound 6, (S)-4-amino-N-(3-(4-(3-cyclohexyl-4-(pyrrolidin-3-yloxy)benzoyl)piperazine-1-carbonyl)-5-fluorophenyl)-N-methylbutanamide ditrifluoroacetate] |
